Laboratory results from patent US11559575B2, “Multi-epitopic peptide compounds and vaccines against leishmaniasis” (INSTITUT DE RECHERCHE POUR LE DEVELOPPEMENT, priority 2018, dated 2023).
Entries after “also recorded” stand apart in the source; their conditions may differ.

Test system: HLA alleles of class II
Assay: Affinity of epitopes for HLA alleles of class II
Assay type: binding, human
Details: for Concatenation affinity for the HLA alleles of class II: H2B-II peptides; for Concatenation affinity for the HLA alleles of class II / Affinity HLA alleles of class II: Table 1; for Affinity HLA alleles of class II: H2B-II core epitopes
Source text: The multiepitopic peptide compounds (24 to 40-mer), having a high affinity with a maximized number of HLA molecules of class I and of class II, such as the affinities for the alleles HLA of class I and HLA of class II of the epitopes in the peptides of the sequences SEQ ID NO: 22, 23, 65, 66, 69, 73, 77, 96, 97, 137, 138, and 157, 185, have a high immunoprevalent potential corresponding to an optimal vaccine coverage, in particular for the populations concerned. The degree of coverage of the peptide compounds of the invention show a very high added value compared with the peptides of the prior art.

## DFSNMGLLL (listed as Leishmania infantum) [SEQ ID NO: 171]
PSA KC-2.7 core, Table 3
  Concatenation affinity for HLA alleles of class II: HLA-DPA1*01:03/; also recorded: DPB1*04:01,; also recorded: HLA-DPA1*03:01/; also recorded: DPB1*04:02

## EGYFLTDEKTSLVYG (listed as Leishmania infantum) [SEQ ID NO: 139]
PSA KC-2.6 peptides, Table 3
  Concatenation affinity for HLA alleles of class II: HLA-DRB1*12:01, HLA-DRB1*13:02,; also recorded: HLA-DRB3*01:01, HLA-DRB3*02:02,; also recorded: HLA-DPA1*03:01/DPB1*04:02; also recorded: HLA-DRB1*01:01, HLA-DRB1*03:01,; also recorded: HLA-DRB1*04:01, HLA-DRB1*04:05,; also recorded: HLA-DRB1*07:01, HLA-DRB1*11:01,

## RSGEGYFLTDEKTSL (listed as Leishmania infantum) [SEQ ID NO: 143]
PSA KC-2.6 peptides, Table 3
  Concatenation affinity for HLA alleles of class II: HLA-DRB1*01:01, HLA-DRB1*03:01,; also recorded: HLA-DRB1*04:01, HLA-DRB3*01:01,; also recorded: HLA-DPA1*03:01/DPB1*14:01

## FDLFTDVHYSEVSAK (Leishmania major) [SEQ ID NO: 103]
LmlRAB-IIB peptides, Table 2
  Concatenation affinity for HLA alleles of class II: HLA-DRB1*01:01, HLA-DRB1*03:01,; also recorded: HLA-DRB1*07:01, HLA-DRB1*09:01,; also recorded: HLA-DPA1*03:01/DPB1*04:02,; also recorded: HLA-DPA1*02:01/HLA-DPB1*14:01

## KPKRSWNVYVGRSLK (Leishmania major) [SEQ ID NO: 25]
  Concatenation affinity for the HLA alleles of class II: HLA-DRB5*01:01, HLA-DRB1*01:01, HLA-DRB1*07:01,; also recorded: HLA-DRB1*09:01, HLA-DRB1*15:01

## VVGRHLSIVADHMPH (Leishmania major) [SEQ ID NO: 84]
LmLRAB-IIA peptides, Table 2
  Concatenation affinity for HLA alleles of class II: HLA-DRB1*01:01

## FSNMGLLLS (listed as Leishmania infantum) [SEQ ID NO: 172]
PSA KC-2.7 core, Table 3
  Concatenation affinity for HLA alleles of class II: HLA-DRB1*11:01

## SENAIVTSRKVQEEV (Leishmania major) [SEQ ID NO: 113]
LmlRAB-IIB peptides, Table 2
  Concatenation affinity for HLA alleles of class II: HLA-DRB1*03:01, HLA-DRB1*07:01,; also recorded: HLA-DRB1*08:02, HLA-DRB1*11:01,; also recorded: HLA-DRB1*12:01

## AIVTSRKVQ (Leishmania major) [SEQ ID NO: 119]
LmlRAB-IIB core, Table 2
  Concatenation affinity for HLA alleles of class II: HLA-DRB1*11:01

## VGRSLKAIN (Leishmania major) [SEQ ID NO: 51]
  Affinity HLA alleles of class II: HLA-DRB1*03:01,; also recorded: HLA-DRB1*04:05,; also recorded: HLA-DRB1*08:02,; also recorded: HLA-DRB1*11:01

## LHSVVGRHL (Leishmania major) [SEQ ID NO: 90]
LmLRAB-IIA core, Table 2
  Concatenation affinity for HLA alleles of class II: HLA-DRB1*11:01; also recorded: HLA-DRB1*15:01; also recorded: HLA-DRB4*01:01; also recorded: HLA-DRB5*01:01; also recorded: HLA-DRB1*07:01; also recorded: HLA-DRB1*09:01

## NVYVGRSLKAINAQM (Leishmania major) [SEQ ID NO: 31]
  Concatenation affinity for the HLA alleles of class II: HLA-DRB1*04:01, HLA-DRB4*01:01, HLA-DRB1*03:01,; also recorded: HLA-DRB1*04:05, HLA-DRB1*11:01, HLA-DRB1*01:01,; also recorded: HLA-DRB1*09:01, HLA-DRB1*15:01, HLA-DRB1*08:02

## MIRDLDFSN (listed as Leishmania infantum) [SEQ ID NO: 176]
PSA KC-2.7 core, Table 3
  Concatenation affinity for HLA alleles of class II: HLA-DRB1*03:01,; also recorded: HLA-DRB1*04:01,; also recorded: HLA-DRB1*04:05,; also recorded: HLA-DRB1*08:02

## PKRSWNVYVGRSLKA (Leishmania major) [SEQ ID NO: 26]
  Concatenation affinity for the HLA alleles of class II: HLA-DRB5*01:01, HLA-DRB1*01:01, HLA-DRB1*11:01,; also recorded: HLA-DRB5*13:02, HLA-DRB5*07:01, HLA-DRB5*09:01,; also recorded: HLA-DRB5*15:01

## GRLHSVVGRHLSIVA (Leishmania major) [SEQ ID NO: 79]
LmLRAB-IIA peptides, Table 2
  Concatenation affinity for HLA alleles of class II: HLA-DRB1*07:01,; also recorded: HLA-DRB5*01:01,; also recorded: HLA-DRB1*15:01,; also recorded: HLA-DRB1*11:01,; also recorded: HLA-DRB1*09:01,; also recorded: HLA-DRB4*01:01

## RSGEGYFLT (listed as Leishmania infantum) [SEQ ID NO: 149]
PSA KC-2.6 core, Table 3
  Concatenation affinity for HLA alleles of class II: HLA-DRB1*03:01,; also recorded: HLA-DRB3*01:01

## GSDYSHSMIRDLDFS (listed as Leishmania infantum) [SEQ ID NO: 159]
PSA KC-2.7 peptides, Table 3
  Concatenation affinity for HLA alleles of class II: HLA-DRB1*01:01, HLA-DRB1*04:05,; also recorded: HLA-DRB1*07:01, HLA-DRB1*09:01,; also recorded: HLA-DRB4*01:01, HLA-DRB5*01:01,; also recorded: HLA-DPA1*02:01/DPB1*14:01

## GRSENAIVTSRKVQE (Leishmania major) [SEQ ID NO: 104]
LmlRAB-IIB peptides, Table 2
  Concatenation affinity for HLA alleles of class II: HLA-DRB1*01:01, HLA-DRB1*03:01,; also recorded: HLA-DRB1*07:01, HLA-DRB1*11:01,; also recorded: HLA-DRB1*12:01, HLA-DRB5*01:01

## VQEEVFDLFTDVHYS (Leishmania major) [SEQ ID NO: 117]
LmlRAB-IIB peptides, Table 2
  Concatenation affinity for HLA alleles of class II: HLA-DRB1*03:01, HLA-DRB1*04:01,; also recorded: HLA-DRB1*04:05, HLA-DRB1*07:01,; also recorded: HLA-DRB1*15:01, HLA-DPA1*01:03/DPB1*02:01,; also recorded: HLA-DPA1*02:01/DPB1*05:01,; also recorded: HLA-DPA1*03:01/DPB1*04:02

## PKRSWNVYV (Leishmania major) [SEQ ID NO: 48]
  Affinity HLA alleles of class II: HLA-DRB1*13:02,; also recorded: HLA-DRB1*15:01
